Values quoted from earlier work in paper PMC6101361 (PLoS ONE, 2018).

System: anti-ß1EC2-induced heart failure in rats
Conditions: daily applications; ref [20]
Excerpt: The observed trend to ...

## CC(C)NCC(O)COc1ccc(COCCOC(C)C)cc1 (stereo not shown) [bisoprolol]
  effect on anti-ß1EC2–induced heart failure: only delayed progression of anti-ß1EC2–induced heart failure
